# Assay results: publication PMC8397418, “Novel Bis-Thiazole Derivatives: Synthesis and Potential Cytotoxic Activity Through Apoptosis With Molecular Docking Approaches” (Frontiers in Chemistry, 2021)
# Entries after “also recorded” stand apart in the source; their conditions may differ.
# Legend:
# [1] = tested on: KF-28 ovarian cancer cells; assay: MTT cytotoxicity assay, KF-28; format: cell-based, human; conditions: Homo sapiens; MTT, 72 h, n = 3; read-out: IC50 KF-28 (Ovarian)
# Description: (§1) The synthesized derivatives were screened for their cytotoxic activities against five cancer cell lines (two breast cancer cell lines: MCF-7 and MDA-MB-231, two ovarian cancer cell lines: A2780 and KF-28, and one cervical cancer cell line: Hela). This study was performed using serial concentrations of 25, 50, 100, 150, and 200 µM of each compound using the MTT assay. Percentages of cell viability of the tested compounds with serial concentration against the tested panel of cell lines are depicted in Figure 1, in which there is a decrease in the cell viability with increasing concentrations in a dose–response pattern. […] Therefore, compounds 5a, 5b, and 5f were thought worthwhile to further investigate their effects as either cytotoxic or antiproliferative effects and whether any of them is an inducer of apoptotic cell death in the representative cancer cell lines KF-28 and A2780.
# (§2) The human ovarian serous carcinoma cell line KF-28 was kindly provided by Prof. Yoshihiro Kikuchi (Department of Obstetrics and Gynecology, National Defense Medical College, Saitama, Japan), and A2780 cell line was purchased from the ECACC (ECACC 93112519). The cells were maintained in RPMI-1640 (Sigma-Aldrich, United States). The cervical cancer cell line, Hela cells, breast cancer cell line, MCF-7, and MDA-MB-231 were purchased from the ATCC and cultured in DMEM. Both types of media were supplemented with 2 mM L-glutamine (Lonza, Belgium), 10% FBS (Sigma, St. Louis, MO, United States), and 1% penicillin/streptomycin (Lonza, Belgium). All cells were incubated at 37°C in 5% CO2 atmosphere (NuAire). All cancer cell lines were cultured according to the routine tissue culture work as discussed by the Freshney group ([Freshney, 2010]). The cells were plated at a density of 5,000 cells in triplicates in a 96-well plate. On the next day, the cells were treated with the indicated compound(s) at the indicated concentrations in a final volume of 100 μL media. Cell viability was assessed after 72 h using MTT solution (Promega) ([Mosmann, 1983]). 20 μL of the reagent was added to each well, the plate was incubated for 3 h, […] was subsequently measured (570 nm) using a plate reader, and then the IC50 values were calculated using Excel ([Tantawy et al., 2020]).
# KF-28 cells = assay: DNA content and cell cycle analysis (PI, flow cytometry); format: cell-based, human; conditions: 200 µM, 48 h; for Cell cycle phase G1 population: DMSO control 72%
# Description: Studying the cell cycle phases by measuring DNA content is a crucial test that helps in evaluating the impact of a given drug(s) on dividing cells and may reflect the mechanism through which this drug(s) affects those cells. […] Compounds 5a, 5b, 5c, 5f, 5g, and 9 were added to similar numbers of cells at 200 µM for 48 h, and then, the different cell cycle phases were assessed by flow cytometric analysis.
# The cells were seeded into six-well culture plates (3–5 × 10^5 cells/well) and incubated overnight at 37°C, under 5% CO2. The cells were then treated with indicated compounds for 48 h. Next, media supernatants and the cells were collected and washed with ice-cold PBS. Next, the cells were stained with PI (10 mg/ml) for 30 min and analyzed for DNA contents using flow cytometry analysis using an FL2 (λex/em 535/617 nm) signal detector (ACEA Novocyte™ flow cytometer, ACEA Biosciences, Inc., San Diego, CA, United States). For each sample, 12,000 events are acquired. Cell cycle distribution is calculated using a CytoFLex machine and analyzed by CytExpert software. Flow cytometric methodologies (annexin V/PI staining with cell cycle analyses) are carried out as previously described ([Nafie et al., 2020a]; [Nafie et al., 2020b]; [Gad et al., 2020]).
# [2] = tested on: MCF-7 breast cancer cells; assay: MTT cytotoxicity assay, MCF-7; format: cell-based, human; conditions: Homo sapiens, MCF7; MTT, 72 h, n = 3; read-out: IC50 MCF-7 (Breast)
# Description: as §1, §2
# C-myc in KF-28 cells = assay: Western blot of C-myc expression; format: cell-based, human; conditions: two days, vs DMSO
# Excerpt: Pim-1 has been classified as a weak oncogene. However, a very strong synergism with regard to tumorigenicity occurs between Pim-1 and C-myc. This synergism is observed with bitransgenic mice overexpressing C-myc and Pim-1 in lymphoid tissue ([Möröy et al., 1991]). To further validate the simulation and docking data which introduced Pim-1 kinase as a potential target molecule for some of the tested compounds, we decided to check the effect of treatment with the selected compounds on the C-myc protein expression as a downstream target molecule known to be phosphorylated and stabilized by Pim-1 as a kinase ([Zhang et al., 2008]). […] Taking into consideration the fact that Pim-1 phosphorylates C-myc and controls its stability ([Zhang et al., 2008]) may conclude that the reduction of C-myc expression under the indicated compounds is due to the inhibition of Pim-1 activity (Figure 3). Therefore, the speculated inhibition of Pim-1 is supported by the above-mentioned qPCR data (Figure 3) and further supported by C-myc downregulation. Our results agree with the reported one which states that some thiazole derivatives are potent inhibitors against protein kinases including Pim-1 kinase ([Mohareb et al., 2019]).
# Cell lysates were prepared by lysing cells in RIPA buffer (10 mM Tris (pH 7.4), 150 mM NaCl, 1% Triton X-100, 1% Na deoxycholate), supplemented with protease inhibitor cocktail (Sigma). Protein concentration of whole cell lysates was determined by the […] using the BSA kit (Pierce), and then equal protein amounts were heated to 95 °C for 5 min with sodium dodecyl sulfate (SDS) sample buffer (25 ml glycerol, 31.2 ml Tris buffer, 7.5 ml SDS, a dash of bromophenol blue/100 ml) and run on 15% SDS polyacrylamide gel electrophoresis (SDS-PAGE). Protein samples were then blotted onto PVDF membranes (Immobilon P, Watford, United Kingdom). The membranes were incubated in blocking solution (5% non-fat milk in PBS) for 1 h and then in primary antibody (anti-human C-myc pAb (Abcam; at dilution of 2:1,000) or GAPDH mAb (Santa Cruz; at dilution of 20:1,000)) overnight. After 3 × 10 min washes in TBS (0.1% Tween-20 in PBS), the membrane was incubated for 1 h at room temperature with horseradish-peroxidase–linked (HRP) secondary anti-rabbit or anti-mouse Ab (1:1,000 dilution in PBS). Signals on the membrane were developed using ECL reagent (Amersham, CA, United States) and then were imaged with the Chemidoc system (Bio-Rad, United States).
# [3] = tested on: A2780 ovarian cancer cells; assay: MTT cytotoxicity assay, A2780; format: cell-based, human; conditions: Homo sapiens, A2780; MTT, 72 h, n = 3; read-out: IC50 A2780 (Ovarian)
# Description: as §1, §2
# [4] = tested on: MEF normal mouse embryonic fibroblast; assay: MTT cytotoxicity assay, MEF; format: cell-based; conditions: n = 3
# [5] = tested on: Hela cervical cancer cells; assay: MTT cytotoxicity assay, Hela; format: cell-based; conditions: Homo sapiens, MTT, 72 h, n = 3, read-out: IC50 Hela (Cervical)
# Description: as §1, §2
SMILES,IC50 [1],Cell cycle phase S population (KF-28 cells),Cell cycle phase G1 population (KF-28 cells),IC50 [2],C-myc protein expression (Western blot) (C-myc in KF-28 cells),IC50 [3],IC50 [4],IC50 [5]
"Cc1[nH]c(=NN=C2CCC(=NN=c3[nH]c(C)c(N=Nc4ccccc4)s3)CC2)sc1N=Nc1ccccc1 [5a, 1,4-Bis((5-phenylazo-4-methylthiazol-2-ylidene)hydrazono)cyclohexane]",< 25 µM,11.4%,75.9%,> 200 µM,observable downregulation,77.9 µM,7.08 µM,> 200 µM
"Cc1ccc(N=Nc2sc(=NN=C3CCC(=NN=c4[nH]c(C)c(N=Nc5ccc(C)cc5)s4)CC3)[nH]c2C)cc1 [5b, 1,4-Bis((5-(4-tolylazo)-4-methylthiazol-2-ylidene)hydrazono)cyclohexane]",< 25 µM,4.5%,85.6%,> 200 µM,observable downregulation; also recorded: Appreciated downregulation,94.4 µM,2.34 µM,> 200 µM
"Cc1[nH]c(=NN=C2CCC(=NN=c3[nH]c(C)c(N=Nc4ccccc4Cl)s3)CC2)sc1N=Nc1ccccc1Cl [5f, 1,4-Bis((5-(2-chlorophenylazo)-4-methylthiazol-2-ylidene)hydrazono)cyclohexane]",< 25 µM,,76.9%,> 200 µM,observable downregulation; also recorded: Appreciated downregulation,< 25 µM,> 200 µM,> 200 µM
